According to patent US11306071B2, “Heterocyclic compounds as adenosine antagonists” (Nuvation Bio Inc., priority 2019, dated 2022):

Key:
[1] = molecular target: adenosine A1 (human) membrane (Homo sapiens (Human), UniProt P30542); assay: A1 adenosine receptor radioligand binding assay ([3H] DPCPX); conditions: 200 nM compound; radioligand [3H] DPCPX 1 nM
Protocol: A second A1 adenosine receptor radioligand binding assay protocol was used. The protocol used adenosine A1 (human) membrane (PerkinElmer ES-010-M400UA) at a concentration of 2.5 μg/well/100 μl and the radioligand [3H] DPCPX (Cat No. PerkinElmer-NET974250UC) at a final concentration of 1 nM. Testing compounds were tested at a final concentration of 200 nM. CGS-15943, the reference compound, was tested in an 8-point 4-fold serial dilution, starting at a top concentration of 1 μM. 1 μl of compounds/high control/low control was transferred to the assay plate according to a plate map, followed by 100 μl of membrane stocks and 100 μl of radioligand, in assay buffer (25 mM HEPES, 5 mM MgCl2, 1 mM CaCl2, 100 mM NaCl, pH 7.4). The plate was sealed and incubated at RT for 1 hour. Unifilter-96 GF/C filter plates (Perkin Elmer Cat #6005174) were soaked with 50 μl of 0.3% PEI per well for at least 0.5 hour at room temperature. When the binding assays were completed, the reaction mixtures were filtered through GF/C plates using Perkin Elmer Filtermate Harvester, and each plate washed 4 times with cold wash buffer (25 mM HEPES, 5 mM MgCl2, 1 mM CaCl2, 100 mM NaCl, pH 7.4). The filter plates were dried for 1 hour at 50 degrees. After drying, the bottom of the filter plate wells was sealed, 50 μl of Perkin Elmer Microscint 20 cocktail was added, and the top of the filter plate was sealed. ^3H trapped on the filter was counted using Perkin Elmer MicroBeta2 Reader. The data were analyzed with GraphPad Prism 5 to obtain binding IC50 values for the reference compound. The “Inhibition [% Control]” was calculated using the equation: % Inh=(1-Background subtracted Assay value/Background subtracted HC value)*100, where HC is high control.

[2] = molecular target: HEK-293 cells expressing human recombinant adenosine A2A receptor (Homo sapiens (Human), UniProt P29274); assay: cAMP assay (Assay 2), A2A receptor; format: cell-based
Protocol: The functional activity of compounds was tested using Assay 2, below, to detect the presence of cAMP. Assay 1 is an alternative assay for this purpose. Activation of G-protein coupled receptors (such as A2A) results in activation of adenylyl cyclase which converts ATP into cAMP which is used as a downstream signaling molecule. Therefore, molecules which act as GPCR (or specifically A2A receptor) antagonists cause a decrease in intracellular cAMP concentration.
Assay 2 (Table B2): This assay used HEK-293 cells expressing human recombinant adenosine A2A receptor (or, alternatively, A1 receptor) that were grown prior to the test in media without antibiotic. 100 nL of test articles at 100x of final concentration were transferred to assay plate by Echo. Cells were washed twice with 5 mL of PBS and 10 μL of cells were mixed with 5 mL PBS. After aspirating the PBS and adding 1.5 mL versine, cells were incubated at 37° C. for 2-5 min. After centrifugation, 4 mL of medium was added and adjusted cell density to 5,000 cells/well with Stimulation Buffer. 10 μL of cells were aliquoted to the assay plate, centrifuged at 1000 rpm for 1 minute, and incubated for 60 minutes at room temperature. 5 μL 4× Eu-cAMP tracer solution and 5 μL 4× Ulight™-anti-cAMP solution were added to assay plate, followed by centrifugation and 60-minute incubation at room temperature. Plates were read on EnVision.

[3] = molecular target: adenosine A2a (human) membrane (Homo sapiens (Human), UniProt P29274); assay: A2A adenosine receptor radioligand binding assay ([3H] CGS-21680); conditions: radioligand [3H] CGS-21680 6 nM
Protocol: A second A2A adenosine receptor radioligand binding assay protocol was used. The protocol used adenosine A2a (human) membrane (PerkinElmer RBHA2AM400UA) at a concentration of 5 μg/well/100 μl and the radioligand [3H] CGS-21680 (Cat No. PerkinElmer-NET1021250UC) at a final concentration of 6 nM. Testing compounds were diluted with DMSO to make 8-point 4-fold serial dilution, starting at 0.2 mM. CGS-15943 was the reference compound. 1 μl of compounds/high control/low control was transferred to the assay plate according to a plate map, followed by 100 μl of membrane stocks and 100 μl of radioligand, in assay buffer (50 mM Tris-HCl, 10 mM MgCl2, 1 mM EDTA, pH 7.4). The plate was sealed and incubated at RT for 2 hours. Unifilter-96 GF/C filter plates (Perkin Elmer Cat #6005174) were soaked with 50 μl of 0.3% PEI per well for at least 0.5 hour at room temperature. When the binding assays were completed, the reaction mixtures were filtered through GF/C plates using Perkin Elmer Filtermate Harvester, and each plate washed 4 times with cold wash buffer (50 mM Tris-HCl, 154 mM NaCl, pH 7.4). The filter plates were dried for 1 hour at 50 degrees. After drying, the bottom of the filter plate wells was sealed, 50 μl of Perkin Elmer Microscint 20 cocktail was added, and the top of the filter plate was sealed. ^3H trapped on the filter was counted using Perkin Elmer MicroBeta2 Reader. The data were analyzed with GraphPad Prism 5 to obtain binding IC50 values. The “Inhibition [% Control]” was calculated using the equation: % Inh=(1-Background subtracted Assay value/Background subtracted HC value)*100, where HC is high control.

Sequence of adenosine A1 (human) membrane (P30542 whole entry): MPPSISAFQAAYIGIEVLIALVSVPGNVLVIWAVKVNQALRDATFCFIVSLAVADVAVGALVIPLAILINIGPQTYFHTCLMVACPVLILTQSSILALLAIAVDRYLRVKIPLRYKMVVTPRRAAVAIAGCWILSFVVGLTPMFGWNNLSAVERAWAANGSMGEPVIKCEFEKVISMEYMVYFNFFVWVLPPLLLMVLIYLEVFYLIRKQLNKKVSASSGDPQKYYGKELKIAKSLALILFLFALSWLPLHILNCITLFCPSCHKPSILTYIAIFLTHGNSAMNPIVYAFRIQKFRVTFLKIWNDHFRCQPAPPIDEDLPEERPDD
Sequence of HEK-293 cells expressing human recombinant adenosine A2A receptor (P29274 whole entry): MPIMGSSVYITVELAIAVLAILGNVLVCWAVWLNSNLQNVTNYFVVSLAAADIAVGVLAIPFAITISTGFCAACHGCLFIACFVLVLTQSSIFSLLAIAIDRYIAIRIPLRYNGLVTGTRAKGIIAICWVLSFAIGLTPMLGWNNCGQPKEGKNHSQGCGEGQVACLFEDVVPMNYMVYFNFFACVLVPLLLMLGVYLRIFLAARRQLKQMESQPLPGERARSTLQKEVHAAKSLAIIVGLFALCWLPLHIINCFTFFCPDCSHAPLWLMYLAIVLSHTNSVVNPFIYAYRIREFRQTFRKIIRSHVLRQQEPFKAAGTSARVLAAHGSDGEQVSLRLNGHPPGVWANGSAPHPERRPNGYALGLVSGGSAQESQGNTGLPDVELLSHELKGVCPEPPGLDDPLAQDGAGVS
Sequence of adenosine A2a (human) membrane (P29274 whole entry): as above

| Structure (SMILES) | inhibition at 0.2 µM [1] [%] | IC50 [2] [nM] | A1 binding inhibition at 200 nM (%) [1] [%] | IC50 [3] [nM] |
| --- | --- | --- | --- | --- |
| CC(Oc1nc(-c2cc(Cl)c3ncccc3c2)c(-c2ccc(F)cc2)nc1N)c1ccccn1 (centres unmarked) [Compound No. 103, 5-(8-chloroquinolin-6-yl)-6-(4-fluorophenyl)-3-(1-(pyridin-2-yl)ethoxy)pyrazin-2-amine] | 19 | 1420 | – | – |
| CC(NC(=O)c1nc(-c2cc(Cl)c3ncccc3c2)c(-c2ccccc2)nc1N)c1ccccn1 (centres unmarked) [Compound No. 119, 3-amino-6-(8-chloroquinolin-6-yl)-5-phenyl-N-(1-(pyridin-2-yl)ethyl)pyrazine-2-carboxamide] | – | – | 92 | 12 |
| CC(NC(=O)c1nc(-c2ccc3ncccc3c2)c(-c2ccn(C)n2)nc1N)c1cccc(C#N)n1 (centres unmarked) [Compound No. 127, 3-amino-N-(1-(6-cyanopyridin-2-yl)ethyl)-5-(1-methyl-1H-pyrazol-3-yl)-6-(quinolin-6-yl)pyrazine-2-carboxamide] | 84 | – | – | 3.9 |
| N#Cc1cc(-c2nc(N)cnc2-c2cc(Cl)c3ncccc3c2)ccc1F [Compound No. 2-13, 5-(6-amino-3-(8-chloroquinolin-6-yl)pyrazin-2-yl)-2-fluorobenzonitrile] | 54 | 527 | – | – |
| C[C@@H](NC(=O)c1nc(-c2cc(Cl)c3ncccc3c2)c(-c2ccccc2)nc1N)c1ccccn1 [Compound No. 113, (R)-3-amino-6-(8-chloroquinolin-6-yl)-5-phenyl-N-(1-(pyridin-2-yl)ethyl)pyrazine-2-carboxamide] | 58 | – | – | 4.7 |
| C[C@H](NC(=O)c1nc(-c2ccc3ncccc3c2)c(-c2ccccc2)nc1N)c1cccc(C#N)n1 [Compound No. 116, (S)-3-amino-N-(1-(6-cyanopyridin-2-yl)ethyl)-5-phenyl-6-(quinolin-6-yl)pyrazine-2-carboxamide] | 98 | – | – | 5.4 |
| C[C@H](NC(=O)c1nc(-c2ccc3ncccc3c2)c(-c2cccc(C#N)c2)nc1N)c1cccc(C#N)n1 [Compound No. 118, (S)-3-amino-5-(3-cyanophenyl)-N-(1-(6-cyanopyridin-2-yl)ethyl)-6-(quinolin-6-yl)pyrazine-2-carboxamide] | 92 | – | – | 16 |
| CCN(CC)CCNc1nc(-c2ccc3ncccc3c2)c(-c2ccccc2)nc1N [compound 1, N2-(2-(diethylamino)ethyl)-5-phenyl-6-(quinolin-6-yl)pyrazine-2,3-diamine] | – | 262 | – | – |
| CC(NC(=O)c1nc(-c2ccc3ncccc3c2)c(-c2ccccc2)nc1N)c1ncccn1 (centres unmarked) [Compound No. 120, 3-amino-5-phenyl-N-(1-(pyrimidin-2-yl)ethyl)-6-(quinolin-6-yl)pyrazine-2-carboxamide] | 45 | – | – | 6.8 |
| CC(NC(=O)c1nc(-c2ccc3ncccc3c2)c(-c2ccn(C)n2)nc1N)c1ncccn1 (centres unmarked) [Compound No. 460, 3-amino-5-(1-methyl-1H-pyrazol-3-yl)-N-(1-(pyrimidin-2-yl)ethyl)-6-(quinolin-6-yl)pyrazine-2-carboxamide] | – | – | – | 7.3 |
| N#Cc1cccc(-c2nc(N)cnc2-c2cc(Cl)c3[nH]ncc3c2)c1 [Compound No. 2-7, 3-(6-amino-3-(7-chloro-1H-indazol-5-yl)pyrazin-2-yl)benzonitrile] | 81 | 130 | – | – |
| C[C@H](NC(=O)c1nc(-c2ccc3ncccc3c2)c(-c2ccccc2)nc1N)c1cnccn1 [Compound No. 129, (S)-3-amino-5-phenyl-N-(1-(pyrazin-2-yl)ethyl)-6-(quinolin-6-yl)pyrazine-2-carboxamide] | 61 | – | – | 3.9 |
| C[C@@H](NC(=O)c1nc(-c2ccc3ncccc3c2)c(-c2cccc(C#N)c2)nc1N)c1cccc(C#N)n1 [Compound No. 117, (R)-3-amino-5-(3-cyanophenyl)-N-(1-(6-cyanopyridin-2-yl)ethyl)-6-(quinolin-6-yl)pyrazine-2-carboxamide] | 56 | – | – | 269 |
| CC(NC(=O)c1nc(-c2ccc3ncccc3c2)c(-c2ccccc2)nc1N)c1cccc(C#N)n1 (centres unmarked) [Compound No. 111, 3-amino-N-(1-(6-cyanopyridin-2-yl)ethyl)-5-phenyl-6-(quinolin-6-yl)pyrazine-2-carboxamide] | 92 | – | – | 3.9 |
| CC(NC(=O)c1nc(-c2cc(Cl)c3ncccc3c2)c(-c2ccccc2)nc1N)c1cccc(C#N)n1 (centres unmarked) [Compound No. 114, 3-amino-6-(8-chloroquinolin-6-yl)-N-(1-(6-cyanopyridin-2-yl)ethyl)-5-phenylpyrazine-2-carboxamide] | 95 | – | – | 3.5 |
| C[C@@H](NC(=O)c1nc(-c2cc(Cl)c3[nH]ncc3c2)c(-c2ccn(C)n2)nc1N)c1ccccn1 [Compound No. 112, (R)-3-amino-6-(7-chloro-1H-indazol-5-yl)-5-(1-methyl-1H-pyrazol-3-yl)-N-(1-(pyridin-2-yl)ethyl)pyrazine-2-carboxamide] | 77 | – | – | 1.6 |
| C[C@@H](NC(=O)c1nc(-c2cc(Cl)c3ncccc3c2)c(-c2ccccc2)nc1N)c1cccc(C#N)n1 [Compound No. 121, (R)-3-amino-6-(8-chloroquinolin-6-yl)-N-(1-(6-cyanopyridin-2-yl)ethyl)-5-phenylpyrazine-2-carboxamide] | 80 | – | – | 1.1 |
| C[C@@H](NC(=O)c1nc(-c2ccc3ncccc3c2)c(-c2ccccc2)nc1N)c1cccc(C#N)n1 [Compound No. 115, (R)-3-amino-N-(1-(6-cyanopyridin-2-yl)ethyl)-5-phenyl-6-(quinolin-6-yl)pyrazine-2-carboxamide] | 74 | – | – | 64 |
| CC(NC(=O)c1nc(-c2ccc3ncccc3c2)c(-c2ccn(C)n2)nc1N)c1ccccn1 (centres unmarked) [Compound No. 459, 3-amino-5-(1-methyl-1H-pyrazol-3-yl)-N-(1-(pyridin-2-yl)ethyl)-6-(quinolin-6-yl)pyrazine-2-carboxamide] | – | – | – | 4.7 |
| C[C@@H](NC(=O)c1nc(-c2cc(Cl)c3ncccc3c2)c(-c2ccccc2)nc1N)c1ccccn1 [Compound No. 123, (R)-3-amino-6-(8-chloroquinolin-6-yl)-5-phenyl-N-(1-(pyridin-2-yl)ethyl)pyrazine-2-carboxamide] | – | – | 89 | 1.1 |
| CC(NC(=O)c1nc(-c2cc(Cl)c3ncccc3c2)c(-c2ccn(C)n2)nc1N)c1cccc(C#N)n1 (centres unmarked) [Compound No. 99, 3-amino-6-(8-chloroquinolin-6-yl)-N-(1-(6-cyanopyridin-2-yl)ethyl)-5-(1-methyl-1H-pyrazol-3-yl)pyrazine-2-carboxamide] | – | 72 | – | – |
